Source: ChEMBL document CHEMBL4145665, “Structure-Activity Relationship of Novel and Selective Biaryl-Chroman GPR40 AgoPAMs” (ACS Med Chem Lett, 2018)

Key:
[1] = target: T1, Free fatty acid receptor 1 (Homo sapiens, UniProt O14842); assay: Agonist activity at recombinant human GPR40 expressed in HEK293 cells assessed as increase in IP1 accumulation measured after 60 mins by HTRF assay; format: functional, cell-based
[2] = target: T1, Free fatty acid receptor 1; assay: Agonist activity at recombinant human GPR40 expressed in HEK293 cells assessed as increase in IP1 accumulation measured after 60 mins in presence of 100% human serum by HTRF assay; format: functional, cell-based
[3] = target: T1, Free fatty acid receptor 1; assay: Agonist activity at recombinant human GPR40 expressed in HEK293 cells assessed as increase in IP1 accumulation measured after 60 mins by HTRF assay relative to AM-1638; format: functional, cell-based
[4] = target: T1, Free fatty acid receptor 1; assay: Agonist activity at recombinant human GPR40 expressed in HEK293 cells assessed as increase in IP1 accumulation measured after 60 mins in presence of 100% human serum by HTRF assay relative to AM-1638; format: functional, cell-based
[5] = target: Free fatty acid receptor 1 (Rattus norvegicus) (UniProt Q8K3T4); assay: Agonist activity at recombinant rat GPR40 expressed in CHOK1 cells assessed as increase in IP1 accumulation measured after 60 mins by HTRF assay relative to AM-1638; format: functional, cell-based
Free fatty acid receptor 1 (Rattus norvegicus), sequence (Q8K3T4 whole entry): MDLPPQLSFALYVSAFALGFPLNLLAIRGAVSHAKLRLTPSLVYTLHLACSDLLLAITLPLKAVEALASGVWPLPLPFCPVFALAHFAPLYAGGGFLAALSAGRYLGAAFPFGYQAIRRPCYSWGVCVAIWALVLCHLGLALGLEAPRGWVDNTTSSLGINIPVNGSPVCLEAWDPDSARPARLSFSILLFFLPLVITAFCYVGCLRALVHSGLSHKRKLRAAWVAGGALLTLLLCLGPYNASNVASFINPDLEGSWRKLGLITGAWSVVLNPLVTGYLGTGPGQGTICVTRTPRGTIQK

Rattus norvegicus [6] = assay: Antidiabetic activity in po dosed Goto Kakizaki rats assessed as plasma concentration required for reduction in blood glucose excursion at MED pretreated for 1 hr followed by dextrose challenge measured 3 hrs post dose by OGTT; format: functional, organism-based
[7] = Lipophilicity, log D of the compound at pH 7 at 100 uM by HPLC method; format: physicochemical; conditions: buffer
Rattus norvegicus [8] = assay: Antidiabetic activity in Sprague-Dawley rat assessed as inhibition of blood glucose AUC at 3 mg/kg, po treated prior to dextrose challenge and measured after 20 to 60 mins by IPGTT relative to control; format: functional; conditions: for inhibition in vivo at 3 mg/kg: Rattus norvegicus, Sprague-Dawley, po

T1 sequence (O14842 whole entry): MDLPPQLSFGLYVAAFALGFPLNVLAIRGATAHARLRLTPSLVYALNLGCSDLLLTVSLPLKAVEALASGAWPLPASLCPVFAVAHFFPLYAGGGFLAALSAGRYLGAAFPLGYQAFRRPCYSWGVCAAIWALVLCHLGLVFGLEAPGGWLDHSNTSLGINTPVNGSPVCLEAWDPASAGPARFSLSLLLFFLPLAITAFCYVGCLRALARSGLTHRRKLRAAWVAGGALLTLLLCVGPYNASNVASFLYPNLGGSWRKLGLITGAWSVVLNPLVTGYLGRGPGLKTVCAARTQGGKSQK

Row | EC50 [1] | EC50 [2] | max activation [3] | max activation [4] | Structure (SMILES) | other results
1 | 13 nM | 2470 nM | – | – | COc1ccc(F)c(-c2ccc(C3CCc4ccc([C@H](C5CC5)[C@H](C)C(=O)O)cc4O3)cn2)c1 (stereo in doubt; 19) [listing 1 of 2 here] | –
2 | – | > 10000 nM | 535% | 2.4% | COc1cccc(-c2ccc(C3CCc4ccc([C@@H](CC(=O)O)C5CC5)cc4O3)cc2)n1 (mixture of isomers) | –
3 | 23 nM | 4030 nM | 394% | 223% | COc1cccc(-c2ccc(C3CCc4ccc([C@@H](CC(=O)O)C5CC5)cc4O3)cc2)c1 (single isomer, unassigned) | –
4 | – | – | > 179% | > 179% | COc1ccc(F)c(-c2ccc(C3CCc4ccc([C@H](C5CC5)[C@H](C)C(=O)O)cc4O3)nc2)c1 (stereo in doubt; 16) | max activation [5]: > 370%; Cp (Rattus norvegicus [6]): 13.9 µM
5 | < 0.2 nM | 105 nM | – | – | COc1cc(-c2ccc(C3CCc4ccc([C@H](C5CC5)[C@H](C)C(=O)[O-])cc4O3)cc2)c(F)cn1.[Na+] (stereo in doubt; 21) | inhibition (INH) (Rattus norvegicus [8]): 88%
6 | 24 nM | 5330 nM | – | – | COc1ccc(F)c(-c2ccc(C3CCc4ccc([C@H](C5CC5)[C@H](C)C(=O)O)cc4O3)cn2)c1 (stereo in doubt; 18) [listing 1 of 2 here] | logD at 100 µM [7]: 2.29
7 | – | – | > 179% | > 179% | COc1cc(-c2ccc(C3CCc4ccc([C@H](C5CC5)[C@H](C)C(=O)O)cc4O3)cc2)c(F)cn1 (stereo in doubt; 21) | –
8 | – | 5170 nM | 500% | 144% | CSc1cccc(-c2ccc(C3CCc4ccc([C@@H](CC(=O)O)C5CC5)cc4O3)cc2)c1 (mixture of isomers) | –
9 | – | – | > 179% | > 179% | COc1ccc(F)c(-c2ccc(C3CCc4ccc([C@H](C5CC5)[C@H](C)C(=O)O)cc4O3)nc2)c1 (stereo in doubt; 17) [listing 1 of 2 here] | –
10 | – | – | – | – | COc1ccc(F)c(-c2ccc(C3CCc4ccc([C@H](C5CC5)[C@H](C)C(=O)O)cc4O3)nc2)c1 (stereo in doubt; 17) [listing 2 of 2 here] | inhibition in vivo at 3 mg/kg (Rattus norvegicus [8]): 100%
11 | 934 nM | 6430 nM | 385% | 73% | O=C(O)C[C@H](c1ccc2c(c1)OC(c1ccc(-c3cccc(OC(F)(F)F)c3)cc1)CC2)C1CC1 (mixture of isomers) | –
12 | < 0.2 nM | 1030 nM | – | – | COc1cc(-c2ccc(C3CCc4ccc([C@H](C5CC5)[C@H](C)C(=O)[O-])cc4O3)nc2)c(F)cn1.[Na+] (stereo in doubt; 28) | logD at 100 µM [7]: 1.98; inhibition (INH) (Rattus norvegicus [8]): 102%
13 | – | 1210 nM | 460% | 224% | COc1cc(-c2ccc(C3CCc4ccc([C@@H](CC(=O)O)C5CC5)cc4O3)cc2)c(F)cn1 (some centres not stated) | –
14 | – | – | > 179% | > 179% | COc1ccc(F)c(-c2ccc(C3CCc4ccc([C@H](C5CC5)[C@H](C)C(=O)O)cc4O3)cn2)c1 (stereo in doubt; 18) [listing 2 of 2 here] | –
15 | 0.9 nM | 66 nM | – | – | COc1cc(-c2ccc(C3CCc4ccc([C@H](C5CC5)[C@H](C)C(=O)[O-])cc4O3)cc2)c(F)cn1.[Na+] (stereo in doubt; 20) | logD at 100 µM [7]: 2.68; inhibition (INH) (Rattus norvegicus [8]): 59%
16 | 7 nM | 1230 nM | 359% | 188% | COc1ccc(F)c(-c2ccc(C3CCc4ccc([C@@H](CC(=O)O)C5CC5)cc4O3)cc2)c1 (mixture of isomers) | –
17 | 133 nM | 5440 nM | 452% | 57% | O=C(O)C[C@H](c1ccc2c(c1)OC(c1ccc(-c3ccccc3)cc1)CC2)C1CC1 (single isomer, unassigned) | –
18 | – | – | > 179% | > 179% | COc1ccc(F)c(-c2ccc(C3CCc4ccc([C@H](C5CC5)[C@H](C)C(=O)O)cc4O3)cn2)c1 (stereo in doubt; 19) [listing 2 of 2 here] | –
19 | 391 nM | 4580 nM | 422% | 231% | O=C(O)C[C@H](c1ccc2c(c1)OC(c1ccc(-c3cccc(O)c3)cc1)CC2)C1CC1 (mixture of isomers) | –
20 | 8.2 nM | 920 nM | > 179% | > 179% | COc1cc(-c2ccc(C3CCc4ccc([C@H](C5CC5)[C@H](C)C(=O)O)cc4O3)c(F)c2)ccn1 (mixture of isomers) | inhibition in vivo at 3 mg/kg (Rattus norvegicus [8]): 84%
21 | – | 2560 nM | 401% | 229% | COc1cc(-c2ccc(C3CCc4ccc([C@@H](CC(=O)O)C5CC5)cc4O3)cc2)ccn1 (mixture of isomers) | –
22 | – | – | > 179% | > 179% | COc1cc(-c2ccc(C3CCc4ccc([C@H](C5CC5)[C@H](C)C(=O)O)cc4O3)nc2)c(F)cn1 (stereo in doubt; 28) | –
23 | – | – | > 179% | > 179% | COc1cc(-c2ccc(C3CCc4ccc([C@H](C5CC5)[C@H](C)C(=O)O)cc4O3)cc2)c(F)cn1 (stereo in doubt; 20) | –

Row | Structure (SMILES) | EC50 [1] | EC50 [2] | max activation [3] | max activation [4] | other results
24 | COc1cc(-c2cnc(C3CCc4ccc([C@H](C5CC5)[C@H](C)C(=O)O)cc4O3)c(F)c2)c(F)cn1 (stereo in doubt; 30) [listing 1 of 2 here] | – | – | > 179% | > 179% | –
25 | COc1cc(-c2ccc(C3CCc4ccc([C@H](C5CC5)[C@H](C)C(=O)O)cc4O3)nc2)ccn1 (stereo in doubt; 33) [listing 1 of 2 here] | – | – | > 179% | > 179% | –
26 | COc1cc(-c2cnc(C3CCc4ccc([C@H](C5CC5)[C@H](C)C(=O)O)cc4O3)c(F)c2)c(F)cn1 (stereo in doubt; 31) [listing 1 of 2 here] | – | – | > 179% | > 179% | –
27 | COc1cc(-c2ccc(C3CCc4ccc([C@H](C5CC5)[C@H](C)C(=O)O)cc4O3)cc2)ccn1 (stereo in doubt; 22) | – | – | > 179% | > 179% | –
28 | COc1cc(-c2ccc(C3CCc4ccc([C@H](C5CC5)[C@H](C)C(=O)[O-])cc4O3)cc2)ccn1.[Na+] (stereo in doubt; 22) | – | 382 nM | – | – | logD at 100 µM [7]: 2.3; inhibition (INH) (Rattus norvegicus [8]): 49%
29 | COc1cc(-c2ccc(C3CCc4ccc([C@H](C5CC5)[C@H](C)C(=O)O)cc4O3)c(F)c2)c(F)cn1 (stereo in doubt; 26) | – | – | > 179% | > 179% | –
30 | COc1cc(-c2ccc(C3CCc4ccc([C@H](C5CC5)[C@H](C)C(=O)O)cc4O3)c(F)c2)c(F)cn1 (stereo in doubt; 27) | – | – | > 179% | > 179% | –
31 | COc1ccc(F)c(-c2ccc(C3CCc4ccc([C@H](C5CC5)[C@H](C)C(=O)O)cc4O3)cc2)c1 (stereo in doubt; 15) [listing 1 of 2 here] | 2.6 nM | 127 nM | – | – | inhibition in vivo at 3 mg/kg (Rattus norvegicus [8]): 102%
32 | COc1cc(-c2ccc(C3CCc4ccc([C@H](C5CC5)[C@H](C)C(=O)O)cc4O3)nc2)ccn1 (stereo in doubt; 32) [listing 1 of 2 here] | – | 838 nM | – | – | logD at 100 µM [7]: 1.74
33 | COc1cc(-c2ccc(C3CCc4ccc([C@H](C5CC5)[C@H](C)C(=O)O)cc4O3)nc2)ccn1 (stereo in doubt; 33) [listing 2 of 2 here] | – | 462 nM | – | – | –
34 | COc1cc(-c2ccc(C3CCc4ccc([C@H](C5CC5)[C@H](C)C(=O)O)cc4O3)nc2)ccn1 (stereo in doubt; 32) [listing 2 of 2 here] | – | – | > 179% | > 179% | –
35 | COc1ccc(F)c(-c2ccc(C3CCc4ccc([C@H](C5CC5)[C@H](C)C(=O)O)cc4O3)cc2)c1 (stereo in doubt; 14) | – | – | > 179% | > 179% | max activation [5]: > 370%; Cp (Rattus norvegicus [6]): 3 µM
36 | COc1cc(-c2cnc(C3CCc4ccc([C@H](C5CC5)[C@H](C)C(=O)O)cc4O3)c(F)c2)c(F)cn1 (stereo in doubt; 30) [listing 2 of 2 here] | – | 382 nM | – | – | logD at 100 µM [7]: 2.36
37 | COc1cc(-c2ccc(C3CCc4ccc([C@H](C5CC5)[C@H](C)C(=O)[O-])cc4O3)c(F)c2)c(F)cn1.[Na+] (stereo in doubt; 26) | < 0.2 nM | 36 nM | – | – | logD at 100 µM [7]: 2.97; inhibition (INH) (Rattus norvegicus [8]): 72%
38 | COc1cc(-c2ccc(C3CCc4ccc([C@H](C5CC5)[C@H](C)C(=O)O)cc4O3)cc2)ccn1 (stereo in doubt; 23) | – | – | > 179% | > 179% | –
39 | COc1cc(-c2cnc(C3CCc4ccc([C@H](C5CC5)[C@H](C)C(=O)O)cc4O3)c(F)c2)c(F)cn1 (stereo in doubt; 31) [listing 2 of 2 here] | – | 757 nM | – | – | –
40 | COc1ccc(F)c(-c2ccc(C3CCc4ccc([C@H](C5CC5)[C@H](C)C(=O)O)cc4O3)cc2)c1 (stereo in doubt; 15) [listing 2 of 2 here] | – | – | > 179% | > 179% | –
41 | COc1cc(-c2ccc(C3CCc4ccc([C@H](C5CC5)[C@H](C)C(=O)[O-])cc4O3)c(F)c2)c(F)cn1.[Na+] (stereo in doubt; 27) | – | 328 nM | – | – | inhibition (INH) (Rattus norvegicus [8]): 38%
42 | COc1cc(-c2ccc(C3CCc4ccc([C@H](C5CC5)[C@H](C)C(=O)[O-])cc4O3)cc2)ccn1.[Na+] (stereo in doubt; 23) | – | 521 nM | – | – | inhibition (INH) (Rattus norvegicus [8]): 7%
